# Reference: PMC7139549, “TLD1433 Photosensitizer Inhibits Conjunctival Melanoma Cells in Zebrafish Ectopic and Orthotopic Tumour Models” (Cancers, 2020)
# System: CRMM1 cells injected into the Duct of Cuvier of zebrafish embryos
# Test: Zebrafish ectopic CM tumour model, CRMM1
# Format: in vivo, Zebrafish (Danio rerio)
# Conditions: for PI (Fluorescence Intensity) / PI (Tumour Area) / Relative Tumour Burden as Measured by Fluorescence Intensity / Tumour Area: CRMM1, Ectopic Model; for PI (Fluorescence Intensity) / PI (Tumour Area): 0 vs 114 J.cm^−2
# Procedure: The zebrafish ectopic conjunctival melanoma tumour model has been described previously. In this model, around 200 fluorescent CM cells are injected into the Duct of Cuvier at 2 dpf, and then disseminate through the blood circulation and grow in the head and tail. To establish the orthotopic tumour model, around 100 red, (td)Tomato fluorescent CRMM1 or CRMM2 cells were injected RO at 2 dpf into tg(Fli:GFP/Casper), endothelial reporter transgenic zebrafish with green fluorescent vasculature and examined by fluorescent microscopy at day 1 and 4 after engraftment (Figure 6A). Tumour expansion at the injection site was measured as fluorescence intensity and tumour area.
# For cancer cell injection, two days post-fertilization (dpf), dechorionated zebrafish embryos were anaesthetized with 0.003% tricaine (Sigma) and plated on a 10 cm Petri dish covered with 1.5% of solidified agarose. CRMM1 and CRMM2 cells were suspended in PBS containing 2% polyvinylpyrrolidone (PVP; Sigma-Aldrich) with a concentration of 50,000 cells/µL and loaded into borosilicate glass capillary needles (1 mm O.D. × 0.78 mm I.D.; Harvard Apparatus). In the ectopic model, 200 (td)Tomato fluorescent CM cells were injected into the Duct of Cuvier or at 2 dpf, which led to dissemination through the blood circulation and outgrowth in the head and tail. In orthotopic tumour model, 100 (td)Tomato fluorescent CRMM1 or CRMM2 cells were injected RO in 2 dpf embryos using a Pneumatic Picopump and a manipulator (WPI). After injection, the embryos were incubated in a 34 °C incubator. Images were acquired at 1-, 2- and 4-days post injection (dpi) with a Leica M165 FC stereo fluorescence microscope. Tumor growth was quantified by calculating the total fluorescence intensity and area with the ZF4 pixel counting program (Leiden). Each experiment was performed at least 3 times with a group size of >30 embryos.
# Fluorescent CRMM1 and CRMM2 cells were injected at 2 dpf into the Duct of Cuvier (ectopic model) and behind the eye (orthotopic model) and TLD1433 was delivered by WA, IV and RO administration with or without a light treatment as described in 4.8. For the WA administration, the 4.6 nM TLD1433 solution was added to the tumour cells injected zebrafish at 2.5, 3.5, 4.5, 5.5 dpf and maintained for 12 h. At 3, 4, 5, 6 dpf, the fish water was refreshed, and after 1 h, embryos were exposed to green light for 90 min (21 mW/cm^2, 114 J/cm^2, 520 nm). For the IV and RO administration, 1 nL of 2.3 mM TLD1433 solution was injected via the dorsal vein or the RO site at 3, 4, 5, 6 dpf. After 1 h interval, the embryos were exposed to green light for 90 min (21 mW/cm^2, 114 J/cm^2, 520 nm). After treatment, the embryos images were acquired with a Leica M165 FC stereo fluorescence microscope. Tumor growth was quantified by calculating the total fluorescence intensity and area with the ZF4 pixel counting program (Leiden). Each experiment was performed at least 3 times with a group size of >30 embryos.
# [1] = Intravenous (1 nL of 2.3 mM), Light Dose 0 J.cm^−2, vs control dark group (100%)
# [2] = Intravenous (1 nL of 2.3 mM), Light Dose 114 J.cm^−2, vs control dark group (100%)
# [3] = Water (4.6 nM), Light dose 0 J.cm^−2, vs control dark group (100%)
# [4] = Water (4.6 nM), Light dose 114 J.cm^−2, vs control dark group (100%)
# [5] = CRMM1, ectopic model, IV 2.3 mM, light 114 J.cm^−2
# [6] = CRMM1, ectopic model, RO 2.3 mM, green light 114 J.cm^−2
smiles,measurement,setting,value
Cc1ccnc(-c2cc(C)ccn2)c1.Cc1ccnc(-c2cc(C)ccn2)c1.[Cl-].[Cl-].[Ru+2].c1csc(-c2ccc(-c3ccc(-c4nc5c6cccnc6c6ncccc6c5[nH]4)s3)s2)c1 [TLD1433],PI (Fluorescence Intensity),Intravenous (1 nL of 2.3 mM),1.6
same,PI (Tumour Area),Intravenous (1 nL of 2.3 mM),2.2
same,Relative Tumour Burden as Measured by Fluorescence Intensity,[1],94%
same,Tumour Area,[1],102%
same,Relative Tumour Burden as Measured by Fluorescence Intensity,[2],59%
same,Tumour Area,[2],46%
same,PI (Tumour Area),Retro orbital (1 nL of 2.3 mM),2.4
same,Tumour Area,"Retro orbital (1 nL of 2.3 mM), Light dose 0 J.cm^−2, vs control dark group (100%)",85%
same,Tumour Area,"Retro orbital (1 nL of 2.3 mM), Light dose 114 J.cm^−2, vs control dark group (100%)",36%
same,PI (Fluorescence Intensity),Retro-orbital (1 nL of 2.3 mM),1.6
same,Relative Tumour Burden as Measured by Fluorescence Intensity,"Retro-orbital (1 nL of 2.3 mM), Light Dose 0 J.cm^−2, vs control dark group (100%)",85%
same,Relative Tumour Burden as Measured by Fluorescence Intensity,"Retro-orbital (1 nL of 2.3 mM), Light Dose 114 J.cm^−2, vs control dark group (100%)",53%
same,PI (Fluorescence Intensity),Water (4.6 nM),1.0
same,PI (Tumour Area),Water (4.6 nM),1.0
same,Relative Tumour Burden as Measured by Fluorescence Intensity,[3],91%
same,Tumour Area,[3],103%
same,Relative Tumour Burden as Measured by Fluorescence Intensity,[4],89%
same,Tumour Area,[4],99%
same,inhibition of tumour area,[5],54%
same,inhibition of tumour fluorescence intensity,[5],41%
same,diminished fluorescence intensity,[6],47%
same,diminished tumour area,[6],64%
same,effect on tumour burden (in words),"CRMM1, ectopic model, WA at the MTD (4.6 nM), light 114 J.cm^−2",did not inhibit tumour burden
